The values that follow are results of earlier work, collected in patent US20150173349A1, “Agroformulation comprising copolymer of an amide, polyalkylene glycol (meth)acrylate, and alkyl (meth)acrylate” (BASF SE, priority 2012, published 2015).

For this series the following is noted: 20° C.

Structures are written as SMILES. In brackets after ≈: the same amount, converted by molar mass.

As for `Cn1cc(C(=O)Nc2ccccc2-c2cc(F)c(F)c(F)c2)c(C(F)F)n1` [fluxapyroxad], the solubility in water was 3.88 µg/mL (≈ 10.2 µM).
